This is an account of results in patent publication US20230391775A1, “SUBSTITUTED DIARYLAMINE COMPOUND, PHARMACEUTICAL COMPOSITION THEREOF, PREPARATION METHOD THEREFOR, AND USE THEREOF” (SUZHOU YABAO PHARMACEUTICAL R&D CO., LTD., priority 2020, published 2023).

Structures are written as SMILES.

Sequence of LRRK2 G2019S (Q5S007 whole entry G2019S): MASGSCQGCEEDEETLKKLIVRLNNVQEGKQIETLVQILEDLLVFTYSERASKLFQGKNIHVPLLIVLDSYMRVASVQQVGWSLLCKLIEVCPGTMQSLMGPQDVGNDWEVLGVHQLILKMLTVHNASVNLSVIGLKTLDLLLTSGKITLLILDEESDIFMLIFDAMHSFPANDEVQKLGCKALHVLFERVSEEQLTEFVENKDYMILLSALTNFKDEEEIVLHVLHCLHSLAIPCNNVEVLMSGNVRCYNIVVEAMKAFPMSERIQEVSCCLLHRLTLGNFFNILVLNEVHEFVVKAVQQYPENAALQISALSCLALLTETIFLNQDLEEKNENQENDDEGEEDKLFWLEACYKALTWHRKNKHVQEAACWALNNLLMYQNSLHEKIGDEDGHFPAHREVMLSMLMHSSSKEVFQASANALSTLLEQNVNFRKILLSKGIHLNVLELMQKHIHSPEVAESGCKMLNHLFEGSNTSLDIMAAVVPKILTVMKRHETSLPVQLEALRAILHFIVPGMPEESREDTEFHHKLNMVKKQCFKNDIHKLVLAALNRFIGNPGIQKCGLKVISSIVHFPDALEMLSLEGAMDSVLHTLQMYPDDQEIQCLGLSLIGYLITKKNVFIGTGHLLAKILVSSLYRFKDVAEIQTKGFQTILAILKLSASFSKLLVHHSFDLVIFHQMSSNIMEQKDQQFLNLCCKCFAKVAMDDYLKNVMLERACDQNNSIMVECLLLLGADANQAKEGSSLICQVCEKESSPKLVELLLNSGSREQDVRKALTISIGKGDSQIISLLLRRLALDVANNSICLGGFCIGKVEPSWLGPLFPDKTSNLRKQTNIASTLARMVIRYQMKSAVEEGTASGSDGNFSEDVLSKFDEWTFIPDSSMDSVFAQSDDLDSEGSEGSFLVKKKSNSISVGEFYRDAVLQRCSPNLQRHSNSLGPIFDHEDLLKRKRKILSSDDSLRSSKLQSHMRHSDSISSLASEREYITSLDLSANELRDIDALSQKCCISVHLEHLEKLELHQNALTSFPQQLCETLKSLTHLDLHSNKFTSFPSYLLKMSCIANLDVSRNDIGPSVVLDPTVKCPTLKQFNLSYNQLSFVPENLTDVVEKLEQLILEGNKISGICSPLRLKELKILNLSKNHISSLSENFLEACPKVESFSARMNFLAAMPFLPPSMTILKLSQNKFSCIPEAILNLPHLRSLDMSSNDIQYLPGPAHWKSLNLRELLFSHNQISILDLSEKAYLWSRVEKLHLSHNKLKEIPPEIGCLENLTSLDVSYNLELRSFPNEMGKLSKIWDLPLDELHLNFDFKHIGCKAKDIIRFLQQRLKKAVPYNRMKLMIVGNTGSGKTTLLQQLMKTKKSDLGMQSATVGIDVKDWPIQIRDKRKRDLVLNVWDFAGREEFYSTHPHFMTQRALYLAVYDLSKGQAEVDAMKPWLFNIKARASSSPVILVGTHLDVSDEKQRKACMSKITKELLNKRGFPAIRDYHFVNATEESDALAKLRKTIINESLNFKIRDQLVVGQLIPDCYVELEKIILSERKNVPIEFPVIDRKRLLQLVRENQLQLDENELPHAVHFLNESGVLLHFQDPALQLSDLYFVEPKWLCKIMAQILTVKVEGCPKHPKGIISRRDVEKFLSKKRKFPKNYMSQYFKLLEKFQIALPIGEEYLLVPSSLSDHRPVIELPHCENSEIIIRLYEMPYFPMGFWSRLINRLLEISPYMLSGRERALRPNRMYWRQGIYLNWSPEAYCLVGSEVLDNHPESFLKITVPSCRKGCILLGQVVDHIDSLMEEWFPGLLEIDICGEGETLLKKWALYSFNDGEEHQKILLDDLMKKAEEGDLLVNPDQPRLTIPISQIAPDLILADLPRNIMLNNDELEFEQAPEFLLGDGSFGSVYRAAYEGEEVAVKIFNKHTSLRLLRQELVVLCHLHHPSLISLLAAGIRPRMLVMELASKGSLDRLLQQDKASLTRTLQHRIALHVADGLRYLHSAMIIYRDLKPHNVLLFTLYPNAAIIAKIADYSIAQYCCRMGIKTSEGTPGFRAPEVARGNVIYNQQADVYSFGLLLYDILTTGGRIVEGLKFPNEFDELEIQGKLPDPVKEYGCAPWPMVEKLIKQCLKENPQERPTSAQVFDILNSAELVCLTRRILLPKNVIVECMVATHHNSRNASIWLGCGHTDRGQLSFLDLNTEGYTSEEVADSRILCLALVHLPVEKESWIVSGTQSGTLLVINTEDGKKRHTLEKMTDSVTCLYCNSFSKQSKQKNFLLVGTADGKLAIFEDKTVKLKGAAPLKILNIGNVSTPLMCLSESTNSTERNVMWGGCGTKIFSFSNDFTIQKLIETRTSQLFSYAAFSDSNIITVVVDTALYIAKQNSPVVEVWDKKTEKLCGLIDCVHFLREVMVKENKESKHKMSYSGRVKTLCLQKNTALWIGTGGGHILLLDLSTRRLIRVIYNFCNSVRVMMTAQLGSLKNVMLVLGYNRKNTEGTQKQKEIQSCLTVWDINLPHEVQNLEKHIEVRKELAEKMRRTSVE

The assay deals with LRRK2 G2019S (Homo sapiens (Human), UniProt Q5S007, G2019S). Put plainly: Adapta kinase assay (LRRK2_IC50 assay). It counts as biochemical. Particulars: Adapta TR-FRET, 1 h, room temperature. The protocol:
In the Adapta™ kinase assay method (LRRK2_IC50 assay): the kinase reaction buffer contained kinase buffer S (Life Technologies, PV5213) and 2 mM DTT (Life Technologies, P2325). The kinases LRRK2 G2019S protein (PV4881) and ERM (LRRKtide, PV5093) were derived from Life Technologies. The Adapta™ universal kinase assay kit (Life Technologies, PV5099) contained the following components: Adapta™ Eu-anti-ADP antibody (PV5097; 4 μg); 10 μM AlexaFluor®647 ADP tracer (PV5098; 200 pmol); TR-FRET dilution buffer (PV3574; 100 mL); kinase quench buffer (P2825; 1 mL); 10 mM ATP (PV3227; 500 μL); and 10 mM ADP (PV5096; 500 μL). LRRK2-IN-1 (1234480-84-2, HY-10875) was derived from MedChem Express.
Adapta™ Kinase Assay Method
Adapta® universal kinase assay method is a uniform fluorescence-based immunoassay for detecting ADP. In contrast to ATP consumption assay, Adapta® assay method was very sensitive to ADP formation, with most signal changes occurring when initially 10-20% ATP was converted to ADP. This made Adapta® universal kinase assay method very suitable for low-activity kinases.
All assays were performed at room temperature (about 21° C.) and were linearly related to time and enzyme concentration under the conditions used. 1× kinase reaction buffer was prepared from 5× kinase buffer S stock solution (listed above), and 10 mL of 1× kinase reaction buffer was prepared by the addition of 2 mL of 5× stock solution to 8 mL of H2O. To the 1× kinase reaction buffer was added 20 μL of 1 M DTT.
A kinase reaction was performed in a low-volume 384-well plate in a volume of 10 μL. Typically, a Greiner plate was used (Catalog #3674 #, low volume, white wall, 784075). Other untreated assay plates that were not tested could also be suitable. The substrate concentration in the assay was 100 μM, and the 1× kinase reaction buffer consisted of 50 mM Tris-HCl (pH 8.5), 10 mM MgCl2, 1 mM EGTA, 0.01% Brij-35 and 2 mM DTT, as well as any other additives that could be necessary for the particular kinase. The kinase reaction was allowed to proceed for 1 h at room temperature, followed by the addition of a formulation of kinase quenching buffer (EDTA; 30 mM), Eu-labeled antibody (6 nM), and tracer (18.9 nM) in TR-FRET dilution buffer (5 μL). The final concentration of the antibody in the assay wells was 2 nM, the final concentration of the tracer was 6.3 nM, and the final concentration of EDTA was 10 mM. The plate was allowed to equilibrate at room temperature for at least 30 min and then read on a plate reader configured for Adapta™ TR-FRET.
The data provided in this document were generated by using BMG LABTECH PHERAstar plate reader and using appropriate filters and instrument settings for Adapta™. Test compounds were screened in wells with 1% DMSO (final). For 8-point titration, a 5-fold serial dilution was made on the basis of a starting concentration.
One may read the IC50 as the concentration that gives 50% inhibition. On to `CCOc1nc(Nc2ccc(C(N3CCOCC3)C(F)(F)F)cc2OC)nc2[nH]ccc12` (single isomer, unassigned) [Compound 1, 4-ethoxy-N-(2-methoxy-4-(2,2,2-trifluoro-1-morpholinoethyl)phenyl)-7H-pyrrolo[2,3-d]pyrimidin-2-amine], for which inhibition was half-maximal at 12 nM (IC50). As for `CCOc1nc(Nc2ccc(C(C)(N3CCOCC3)C(F)(F)F)cc2OC)nc2[nH]ccc12` (single isomer, unassigned) [Compound 2, 4-ethoxy-N-(2-methoxy-4-(1,1,1-trifluoro-2-morpholinylpropan-2-yl)phenyl)-7H-pyrrolo[2,3-d]pyrimidin-2-amine], 55 nM corresponded to half-maximal inhibition (IC50). With `COc1cc(C(N2CCOCC2)C(F)(F)F)ccc1Nc1nc(OCC(F)(F)F)c2cc[nH]c2n1` (single isomer, unassigned) [Compound 5], half-maximal inhibition (IC50) required 17 nM. The compound `COc1cc(C(N2CCOCC2)C(F)(F)F)ccc1Nc1nc(OCC(F)(F)F)c2cc[nH]c2n1` (single isomer, unassigned) [Compound 6] had an IC50 of 12 nM. As for `COc1cc(C(N2C[C@@H]3C[C@H]2CO3)C(F)(F)F)ccc1Nc1nc(OCC(F)(F)F)c2cc[nH]c2n1` (single isomer, unassigned) [Compound 7], half-maximal inhibition (IC50) required 47 nM. Turning to `COc1cc(C(N2C[C@@H]3C[C@H]2CO3)C(F)(F)F)ccc1Nc1nc(OCC(F)(F)F)c2cc[nH]c2n1` (single isomer, unassigned) [Compound 8], it took 52 nM to reach half-maximal inhibition (IC50). To `CCOc1nc(Nc2ccc(C(N3C[C@@H]4C[C@H]3CO4)C(F)(F)F)cc2OC)nc2[nH]ccc12` (single isomer, unassigned) [Compound 9] belongs 7 nM; to `CCOc1nc(Nc2ccc(C(N3C[C@@H]4C[C@H]3CO4)C(F)(F)F)cc2OC)nc2[nH]ccc12` (single isomer, unassigned) [Compound 10], 11 nM. To `COCCOc1nc(Nc2ccc(C(N3CCOCC3)C(F)(F)F)cc2OC)nc2[nH]ccc12` (single isomer, unassigned) [Compound 11] belongs 6 nM.

Turning to `COCCOc1nc(Nc2ccc(C(N3CCOCC3)C(F)(F)F)cc2OC)nc2[nH]ccc12` (single isomer, unassigned) [Compound 12], the IC50 turned out to be 12 nM. Under `CCOc1nc(Nc2ccc(C(N3CCOCC3)C(F)(F)F)cc2F)nc2[nH]ccc12` (single isomer, unassigned) [Compound 13] stands 31 nM.

Turning to `CCOc1nc(Nc2ccc(C(N3CCOCC3)C(F)(F)F)cc2F)nc2[nH]ccc12` (single isomer, unassigned) [Compound 14], inhibition was half-maximal at 30 nM (IC50). Consider `COc1cc(C(N2CCOCC2)C(F)(F)F)ccc1Nc1ncc2cc[nH]c2n1` (single isomer, unassigned) [Compound 15], for which the IC50 worked out at 328 nM.

The compound `COc1cc(C(N2CCOCC2)C(F)(F)F)ccc1Nc1ncc2cc[nH]c2n1` (single isomer, unassigned) [Compound 16] had an IC50 of 430 nM. As to `COc1cc(C(N2CCOCC2)C(F)(F)F)ccc1Nc1nc(C)c2cc[nH]c2n1` (single isomer, unassigned) [Compound 17], the IC50 was 204 nM. Take `COc1cc(C(N2CCOCC2)C(F)(F)F)ccc1Nc1nc(C)c2cc[nH]c2n1` (single isomer, unassigned) [Compound 18]: the IC50 was determined as 253 nM.

On to `CCc1nc(Nc2ccc(C(N3CCOCC3)C(F)(F)F)cc2OC)nc2[nH]ccc12` (single isomer, unassigned) [Compound 19], for which 332 nM corresponded to half-maximal inhibition (IC50). `CCc1nc(Nc2ccc(C(N3CCOCC3)C(F)(F)F)cc2OC)nc2[nH]ccc12` (single isomer, unassigned) [Compound 20] had an IC50 of 235 nM. Compound `CCOc1nc(Nc2ccc(C(N3CCOCC3)C(F)(F)F)cc2Cl)nc2[nH]ccc12` (single isomer, unassigned) [Compound 21] had an IC50 of 119 nM. Consider `CCOc1nc(Nc2ccc(C(N3CCOCC3)C(F)(F)F)cc2Cl)nc2[nH]ccc12` (single isomer, unassigned) [Compound 22], for which the IC50 is 138 nM.

In the case of `COc1nc(Nc2ccc(C(N3CCOCC3)C(F)(F)F)cc2Cl)nc2[nH]ccc12` (single isomer, unassigned) [Compound 23], the IC50 was 147 nM. `COc1nc(Nc2ccc(C(N3CCOCC3)C(F)(F)F)cc2Cl)nc2[nH]ccc12` (single isomer, unassigned) [Compound 24]: inhibition was half-maximal at 122 nM (IC50). Consider `CCOc1nc(Nc2ccc(C(N3CCOCC3)C(F)(F)F)cc2CC)nc2[nH]ccc12` (single isomer, unassigned) [Compound 25], for which it took 141 nM to reach half-maximal inhibition (IC50). `CCOc1nc(Nc2ccc(C(N3CCOCC3)C(F)(F)F)cc2CC)nc2[nH]ccc12` (single isomer, unassigned) [Compound 26]: the IC50 worked out at 70 nM.

The compound `COc1cc(C(N2CCOCC2)C(F)(F)F)ccc1Nc1nc(OCCO)c2cc[nH]c2n1` (single isomer, unassigned) [Compound 27] yielded an IC50 of 5 nM. `COc1cc(C(N2CCOCC2)C(F)(F)F)ccc1Nc1nc(OCCO)c2cc[nH]c2n1` (single isomer, unassigned) [Compound 28] yielded an IC50 of 5 nM.

The compound `CCOc1nc(Nc2ccc(C(N3CCN(C)CC3)C(F)(F)F)cc2OC)nc2[nH]ccc12` (single isomer, unassigned) [Compound 29] displayed an IC50 of 12 nM. The compound `CCOc1nc(Nc2ccc(C(N3CCN(C)CC3)C(F)(F)F)cc2OC)nc2[nH]ccc12` (single isomer, unassigned) [Compound 30] returned an IC50 of 22 nM. With `CCOc1nc(Nc2ccc(C(N3CCN4CCC[C@@H]4C3)C(F)(F)F)cc2OC)nc2[nH]ccc12` (single isomer, unassigned) [Compound 31], the midpoint of inhibition, the IC50, lay at 64 nM.

On to `CCOc1nc(Nc2ccc(C(N3CCN4CCC[C@@H]4C3)C(F)(F)F)cc2OC)nc2[nH]ccc12` (single isomer, unassigned) [Compound 32], for which the IC50 was 27 nM. The compound `CCOc1nc(Nc2ccc(C(N3C[C@H]4C[C@@H]3CO4)C(F)(F)F)cc2OC)nc2[nH]ccc12` (single isomer, unassigned) [Compound 33] had an IC50 of 10 nM. In turn, `CCOc1nc(Nc2ccc(C(N3C[C@H]4C[C@@H]3CO4)C(F)(F)F)cc2OC)nc2[nH]ccc12` (single isomer, unassigned) [Compound 34] came in with an IC50 of 8 nM. Compound `CCOc1nc(Nc2ccc(C(C)(N3CCOCC3)C(F)(F)F)cc2OC)nc2[nH]ccc12` (single isomer, unassigned) [Compound 35, 4-ethoxy-N-(2-methoxy-4-(1,1,1-trifluoro-2-morpholinopropan-2-yl)phenyl)-7H-pyrrolo[2,3-d]pyrimidin-2-amine] registered an IC50 of 275 nM. Turning to `CCOc1nc(Nc2ccc(C3(N4CCOCC4)CC3)cc2OC)nc2[nH]ccc12` [Compound 3, 4-ethoxy-N-(2-methoxy-4-(1-morpholinocyclopropyl)phenyl)-7H-pyrrolo[2,3-d]pyrimidin-2-amine], half-maximal inhibition (IC50) was put at 7 nM. The compound `CCOc1nc(Nc2cc(F)c(C3(N4CCOCC4)CC3)cc2OC)nc2[nH]ccc12` [Compound 36] displayed an IC50 of 38 nM. `CNc1nc(Nc2cc(F)c(C3(N4CCOCC4)CC3)cc2OC)ncc1C(F)(F)F` [Compound 37] had an IC50 of 34 nM. To `COc1cc(C2(N3CCOCC3)CC2)c(F)cc1Nc1nc(OC)c2cc[nH]c2n1` [Compound 38] belongs 25 nM.
